According to PMC10294662, “Small Molecule Attenuates Bacterial Virulence by Targeting Conserved Response Regulator” (mBio, 2023):

Biological target: VicR (Streptococcus mutans, UniProt I6L8Z5)
Experiment: bio-layer interferometry, biotinylated 2B5 on streptavidin sensors; pulldown of recombinant VicR and VicR-N
Assay type: binding
Design: gene covR; recombinant VicR; VicR-N (1 to 125 amino acid residues) also captured, VicR-C (126 to 235) not captured

Sequence of VicR (I6L8Z5 entry or part of it): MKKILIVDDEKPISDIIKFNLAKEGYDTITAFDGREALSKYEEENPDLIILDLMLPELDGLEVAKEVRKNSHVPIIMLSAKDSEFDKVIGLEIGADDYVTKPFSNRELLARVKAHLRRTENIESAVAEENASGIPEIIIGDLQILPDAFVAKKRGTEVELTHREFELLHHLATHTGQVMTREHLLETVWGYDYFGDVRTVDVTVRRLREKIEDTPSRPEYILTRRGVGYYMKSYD

CCCCCCCCCCCCCCCCN(CCCCCCc1cn(CCNC(=O)CCCC[C@@H]2SC[C@@H]3NC(=O)N[C@@H]32)nn1)C(=O)CCCc1c[nH]c(N)n1 [Bio2B5, biotinylated 2B5]
Kd: 38 ± 6.3 µM
